# In paper PMC11215077, “Antiviral activity of temporin-1CEb analogues against gingival infection with herpes simplex virus type 1” (Frontiers in Oral Health, 2024):
# Square brackets hold non-standard residues; d marks the D form. Peptide text beside a SMILES is read from it. AEEA = NCCOCCOCC(=O)O
# Columns and labels:
# HSV-1 [1] = experiment: Virus inhibition (replication) assay in Vero E6 and TIGKs cells, qPCR, titration, gB Western blot; format: cell-based, herpes simplex virus type 1; conditions: 48 h p.i.
# Experimental: HSV-1 stocks were generated by infecting Vero E6 cells. Cells were lysed at 48 h p.i. by two freeze-thaw cycles. The virus containing fluid was aliquoted and stored at −80°C. A control Vero E6 cell lysate from mock-infected cells was prepared in the same manner as the virus stock. Virus yield was assessed by virus titration on fully confluent Vero E6 cells in 96-well plates, according to the method of Reed & Muench ([32]). Plates were incubated at 37°C for 48 h and the occurrence of a cytopathic effect was scored using an inverted microscope, and TCID50 (50% tissue culture infection dose) was calculated.
# Vero E6 or TIGKs cells were seeded in 12-well plates and cultured for 48 h. […] After 30 min of incubation at 37°C, cells were infected with HSV-1 at TCID50 400 /ml or treated with mock. After 2 h of infection at 37°C, unbound viral particles were removed by washing with PBS, and culture media supplemented with peptide conjugates were applied. Following 48 h of incubation, media were collected, and the quantity of HSV-1 DNA copies was assessed using titration and qPCR.
# (§1) Viral DNA was isolated from the conditioned media or the apical washes of inserts (OTG model) using Viral DNA/RNA Isolation Kit (A&A Biotechnology). The virus yield assessed by quantitative real-time PCR (qPCR). The reaction was carried out in a CFX96 Touch Real-Time PCR Detection System (Bio-Rad), in a 10 μl reaction mixture consisting of TaqMan^TM Fast Advanced Master Mix, TaqMan^TM Microbe Detection assay against HSV-1 (Vi04230116_s1) and 1 μl of viral DNA. The temperature profile was 10 s at 95°C, followed by 40 cycles of 3 s at 95°C and 20 s at 60°C. DNA quantification standards were prepared. In summary, a fragment of viral DNA was amplified using the primers listed above and cloned into the pTZ57R/T plasmid using the InsTAclone PCR cloning kit. The plasmid was propagated in E. coli, purified with the GeneJet Plasmid Miniprep Kit, and digested with the EcoR1 restriction enzyme. The number of copies per mL was estimated after the concentration of linearized DNA was assessed spectrophotometrically.
# Protein extracts were prepared using lysis buffer (0.25% Na-deoxycholate, 0.5% Nonidet P-40, 0.05% SDS, protease inhibitor mixture, 2.5 mM EDTA in PBS), and the protein concentration was assessed using Pierce BCA (Thermo Fisher) protein assay kit. Equal amounts of cell extracts were separated on 10% SDS-PAGE gel and electrotransferred onto polyvinylidene difluoride membranes for gB and β-actin in transfer buffer (25 mM Tris, 0.2 M glycine, and 20% ethanol) for 90 min at 100 V. Nonspecific binding sites were blocked for 90 min in 5% skimmed milk prepared in TBST buffer (20 mM Tris, pH 7.5, 0.5 M NaCl, 0.05% Tween 20). Membranes were further incubated overnight at 4°C with primary antibodies: mouse anti-HSV-1 + HSV-2 gB (1:5000; abcam) and mouse anti-β-actin (1:4,000; BD Biosciences). The following day, membranes were washed three times with TBST buffer and incubated with HRP-conjugated secondary antibodies for 60 min at 37°C: goat anti-mouse IgG (1:20,000; β-actin; BD Bioscience) or sheep anti-mouse IgG (1:50,000; gB; Sigma Aldrich). Next, blots were washed five times for 5 min in TBST buffer, developed using Luminata Cresecendo Substarte (Merck) and exposed to AGFA medical x-ray film. Densitometry analysis was performed using ImageJ 1.52q software.
# HSV-1 [2] = conditions: concentration reducing viral replication by 50%; TIGKs cells pre-treated, infected and cultivated with compound; qPCR; mean of two independent experiments
# Experimental: Data were expressed as means ± SD. Statistical significance was determined using unpaired t-test, one-way ANOVA, and/or two-way ANOVA for direct comparisons between single groups. A p-value <0.05 was considered statistically significant. We used GrapPad Prism 10 software for the analyses. […]
# HSV-1 [3] = experiment: Antiviral activity in 3D organotypic model of human gingiva (OTG); format: cell-based, herpes simplex virus type 1
# Experimental: Protocol was described previously ([34]). Briefly, to prepare 3D cultures, 150,000 gingival fibroblasts suspended in 10% FBS in DMEM were mixed with 2.4 ml of ice-cold Matrigel® (Corning) (final concentration 7 mg/ml) and placed in the middle of 12-well cell culture inserts (Greiner). Three days later, 1 × 10^6 TIGK cells suspended in EPM1 were added to the top of the insert. On the ninth day after the start of the procedure, the old culture medium was removed and EPM2 was added to the bottom of the insert. The epithelial layer on the top was exposed to the air, which promotes epithelial differentiation and then stratification. About 8–10 days after air-liquid interphase, 3D cultures of gingiva were used for further experiments.
# The apical surface of OTG model was washed three times with PBS and then inoculated with 100 μl of viral stock (TCID50 400 /ml) in the presence of DAL-PEG-LK6 or CPP1-PEG-LK6 (15 μg/ml) for 2 h at 4°C. Following incubation, the unbound HSV-1 was removed by washing with PBS for 10 min at 37°C, and the OTG cultures were maintained at an air-liquid interface for the rest of the experiment. To determine viral yield, 120 μl of PBS was applied to the apical surface of the OTG, and harvested for DNA isolation after 10 min of incubation at 37°C.
# Briefly, cell inserts were fixed in 10% formaldehyde at 4°C for 1 h. After embedding in paraffin, 3D cultures were cut into 5 μm sections and stained with H&E solution. For immunohistochemical analysis, slides were incubated for 1 h at room temperature in blocking buffer (5% normal goat serum, 0.1% saponin in PBS) and stained with primary antibodies anti-HSV-1 (1:100, 1% normal goat serum, 0.1% saponin in PBS; Abcam) and secondary antibodies: goat anti-rabbit conjugated with Alexa Fluor 488 (1:2000; Cell Signaling). Finally, cell nuclei were stained with ProLong Antifade Mounting Medium with DAPI. Slides were visualized with EVOS FL Cell Imaging System (Thermo Fisher Scientific).
# as §1
# [4] = Analytical RP-HPLC retention time; conditions: Phenomenex Jupiter 4 μ Proteo 90 Å, 250 × 4.60 mm, listed as basic physicochemical characteristic
# Experimental: The synthesized compounds were then purified by reverse-phase high-performance liquid chromatography (RP-HPLC) on a Waters system (Phenomenex Jupiter 4 μ Proteo 90 Å column, 250 × 10 mm). A linear gradient from 10% to 80% of solvent B over 60 min (Solvent A: 0.1% TFA in water; Solvent B: 80% acetonitrile in Solvent A) was employed with a flow rate 5 ml/min. The homogeneity of the final peptide fractions was analyzed using a Shimadzu HPLC System (Shimadzu Europe GmbH, Duisburg, Germany) equipped with a Phenomenex Jupiter 4 μ Proteo 90 Å column, 250 × 4.60 mm. The mass spectra of the synthesized peptides were recorded using a Biflex III MALDI-TOF mass spectrometry (Bruker, Mannheim, Germany) with α-cyano-4-hydroxy-cinnamic acid (CCA) or 2,5-dihydroxybenzoic acid (DHB) used as the matrix.
# Experimental for in vitro: The viability of Vero E6 and TIGKs cells was examined by the XTT Cell Viability Assay kit (Biological Industries, USA). Briefly, cells were treated with indicated concentrations of the peptide conjugates for 48 h at 37°C. Next, the fresh medium was added to the cells and 50 μl of the activated XTT reagent [2,3-bis(2-methoxy-4-nitro-5-sulphenyl)-2H-tetrazolium-5-carboxanilide] was added and further incubated for 2 h at 37°C. Absorbance was measured at a wavelength of 480 nm using FlexStation 3 microplate reader (Molecular Device, Wokingham, UK). The results were expressed normalized against a control of untreated cells (100% viability). To assess the effect of peptide conjugate on the integrity of the plasma membrane, the LDH release assay was performed using the CytoTox96 nonradioactive cytotoxicity assay kit (Promega, Madison, WI, USA) according to the manufacturer's instructions. Cytotoxicity was calculated with the formula: % cytotoxicity = 100 × (experimental LDH release/ maximum LDH release), where maximum LDH release is after lysis solution addition (Triton X-100). Relative amounts of LDH release were measured (absorbance at 490 nm) using FlexStation 3 microplate reader (Molecular Device, Wokingham, UK). […]
# Data were expressed as means ± SD. Statistical significance was determined using unpaired t-test, one-way ANOVA, and/or two-way ANOVA for direct comparisons between single groups. […]
smiles,measurement,setting,value
CC[C@H](C)[C@H](NC(=O)COCCOCCNC(=O)[C@@H](NC(=O)[C@H](CC(C)C)NC(=O)[C@H](Cc1ccc(O)cc1)NC(=O)[C@@H](NC(=O)[C@H](Cc1ccccc1)NC(=O)[C@@H]1CCCN1)C(C)C)[C@@H](C)CC)C(=O)N[C@@H](CCCCN)C(=O)N[C@@H](CCCCN)C(=O)N[C@H](C(=O)N[C@@H](CC(C)C)C(=O)N[C@@H](CO)C(=O)N[C@@H](CCCCN)C(=O)N[C@H](C(=O)N[C@@H](CCCCN)C(=O)N[C@@H](CCCCN)C(=O)N[C@@H](CC(C)C)C(=O)N[C@@H](CC(C)C)C(=O)N[C@@H](CCCCN)C(N)=O)[C@@H](C)CC)[C@@H](C)CC [CPP1-PEG-LK6] (H-PFVYLI[AEEA]IKKILSKIKKLLK-NH2),expression level of gB (Western blot),"HSV-1 [1]; 15 μg/ml before, during and after infection, normalized to β-actin, cell line not stated",significantly suppressed the expression level of gB
same,reduction in viral yield in the qPCR test,"HSV-1 [1]; Figure 1C, Vero E6 (DAL-PEG-LK6 and CPP1-PEG-LK6 25 μg/ml; CPP2-PEG-LK6 10 μg/ml) and TIGKs cells (15 μg/ml)",3 log
same,reduction of virus replication in titration assay,"HSV-1 [1]; Figure 1D, both cell models (Vero E6, TIGKs), normalized to untreated control",over 99%
same,CC50 at 48 h,in vitro,23.4 µg/mL
same,IC50,HSV-1 [2],0.942 µg/mL
same,reduction of viral yield in OTG at 48 h,"HSV-1 [3]; 15 μg/ml during inoculation 2 h at 4°C, apical washes, qPCR, 48 h post-viral inoculation",3 logs
same,reduction of viral yield in OTG at 72 h,"HSV-1 [3]; 15 μg/ml during inoculation 2 h at 4°C, apical washes, qPCR, 72 h post-viral inoculation",2 logs
same,morphology of epithelial cells in OTG (H&E),"HSV-1 [3]; 15 μg/ml, H&E stained sections, Figure 5A",no changes in the morphology of epithelial cells
same,HSV-1-positive cells in OTG sections (immunohistology),"HSV-1 [3]; 15 μg/ml, anti-HSV-1 immunofluorescence, Figure 5B",absent
same,Rt,[4],25.247
